Assay results as given in patent publication US10300067B2, “Tetrahydropyridopyrimidine compound or salt thereof” (TAIHO PHARMACEUTICAL CO., LTD., priority 2014, dated 2019).

Columns and labels:
human androgen receptor = human androgen receptor (Homo sapiens (Human), UniProt P10275); experiment: Antagonist activity for AR (pMMTV-luc reporter transcription activity in transfected COS-7 cells, DHT 1 nmol/L); type: cell-based; conditions: 50% transcription activity inhibition concentration; COS-7 cells with pMMTV-luc and pEX-hAR, DHT 1 nmol/L, 24 hours
human androgen receptor, sequence (P10275 whole entry): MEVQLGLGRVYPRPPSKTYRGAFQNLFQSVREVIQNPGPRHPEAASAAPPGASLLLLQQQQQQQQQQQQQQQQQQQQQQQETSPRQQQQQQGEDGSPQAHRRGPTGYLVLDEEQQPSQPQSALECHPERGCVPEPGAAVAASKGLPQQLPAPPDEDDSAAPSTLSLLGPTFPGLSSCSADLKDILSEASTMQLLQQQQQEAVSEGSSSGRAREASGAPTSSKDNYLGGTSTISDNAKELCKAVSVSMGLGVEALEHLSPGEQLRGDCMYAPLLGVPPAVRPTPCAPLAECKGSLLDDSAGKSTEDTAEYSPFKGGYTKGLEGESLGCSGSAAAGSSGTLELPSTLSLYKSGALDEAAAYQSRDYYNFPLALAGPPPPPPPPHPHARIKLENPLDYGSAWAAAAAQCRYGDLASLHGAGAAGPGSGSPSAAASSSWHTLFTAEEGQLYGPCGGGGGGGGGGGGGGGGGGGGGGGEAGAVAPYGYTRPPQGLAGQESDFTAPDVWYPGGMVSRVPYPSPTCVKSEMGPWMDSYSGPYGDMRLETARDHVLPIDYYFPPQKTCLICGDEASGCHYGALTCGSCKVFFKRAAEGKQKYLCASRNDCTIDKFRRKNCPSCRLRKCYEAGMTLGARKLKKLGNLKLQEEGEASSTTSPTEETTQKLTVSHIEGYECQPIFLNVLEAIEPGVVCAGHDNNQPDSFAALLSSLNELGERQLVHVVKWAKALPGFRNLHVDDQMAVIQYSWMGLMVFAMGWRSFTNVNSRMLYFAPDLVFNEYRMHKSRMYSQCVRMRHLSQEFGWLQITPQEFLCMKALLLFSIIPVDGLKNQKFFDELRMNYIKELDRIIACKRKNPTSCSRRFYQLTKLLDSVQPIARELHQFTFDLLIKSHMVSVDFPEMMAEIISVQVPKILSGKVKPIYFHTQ
Procedure, shortened: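 COS-7 cells co-transfected with pMMTV-luc reporter and CMV-driven human AR expression vector, cultured overnight in phenol red-free RPMI1640 with 10% charcoal-treated FBS. Antagonism measured against 1 nmol/L DHT by luciferase transcription activity.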

[1] = tested on: AR positive human prostate cancer cells VCaP; experiment: Agonist activity for AR (cell proliferation rate of VCaP cells); type: cell-based; conditions: 72 hours, 2 to 10000 nmol/L, more than 10% at any concentration = agonist activity for AR
Procedure, shortened: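 VCaP cells seeded at 1.5×10^4/well in phenol-red-free RPMI1640 with 5% DCC-FBS, then exposed 72 h to compound at 2–10000 nmol/L (9 concentrations). Viable cells counted by CellTiter-Glo; proliferation rate (%) relative to medium-only control, agonist activity called when >10% at any concentration.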

androgen receptor = androgen receptor (Homo sapiens (Human), UniProt P10275, T878A); experiment: Activity of reducing expression level of androgen receptor (Western blotting of LNCaP cell lysate); type: cell-based; conditions: 48 hours
androgen receptor, sequence (P10275 whole entry T878A): as the sequence (P10275 whole entry) above, with T878A counted along it
Procedure, shortened: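 LNCaP prostate cancer cells (AR T878A) in phenol red-free RPMI1640 with 5% FBS treated with compound at final 10000 nmol/L for 48 h. Cell lysates analysed by Western blot with anti-AR antibody; band quantified by chemiluminescence.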

[2] = tested on: Human prostate cancer cells LNCaP; experiment: Androgen-dependent inhibitory activity on proliferation of prostate cancer cells; type: cell-based; conditions: 50% proliferation inhibition concentration, DHT 10 nmol/L, 72 hours, read-out: GI50 value
Experimental: Human prostate cancer cells LNCaP (Non-Patent Literature 5) having […] androgen receptor gene were seeded in a clear bottom 96 well microplate (BD) at 4.0×10^3/well with phenol red free RPMI1640 containing 5% DCC-FBS (hereinbelow, the medium is referred to as an evaluation medium), and then cultured overnight. The culture was added with the evaluation medium containing DHT (final concentration of DHT: 10 nmol/L) or the evaluation medium containing the compound of Examples or the compound of Comparative Examples (final concentration of the compound of Examples or the compound of Comparative Examples: 10, 30, 100, 300, 1000, 3000, 10000, or 30000 nmol/L), followed by culture for 72 hours. Then, the number of viable cells was counted. The number of viable cells was measured by using Cell Counting Kit-8 (DOJINDO LABORATORIES).

LNCaP-Xeno-IL-6 cells = experiment: Anti-tumor activity in in vivo model of castration resistant prostate cancer; conditions: castrated male nude mice, oral, every day for 2 weeks
Experimental: From the AR positive human prostate cancer cells LNCaP, castration resistant prostate cancer cells, LNCaP-Xeno-IL-6 cells, were established based on the scientific paper (Clin Cancer Res, 2001 7:2941-8) (in the paper, the cells have been reported as LNCaP-IL-6+ cells) and used for the in vivo test. The LNCaP-Xeno-IL-6 cells were implanted subcutaneously in male nude mice, and the castration treatment was performed when the tumor volume reached about 200 mm^3. After the castration, the vehicle only (0.5% HPMC) or the compound of Examples suspended in the vehicle was orally administered to the mice every day for 2 weeks. The compound of Examples was administered such that there was no difference in an exposure amount between the compounds. After the administration for 2 weeks, the tumor volume of each mouse was recorded and the average tumor volume of the group administered with the evaluation compound relative to the average tumor volume of the group administered only with the vehicle, that is, T/C (%), was calculated based on the following formula. T/C (%)=(Average tumor volume of evaluation compound group)/(Average tumor volume of vehicle administration group)

Row | SMILES | IC50 (human androgen receptor) | Cell proliferation rate (%) [1] | 10 μM AR expression reducing activity (androgen receptor) | GI50 [2] | T/C (%) (LNCaP-Xeno-IL-6 cells; daily dose 15 mg/kg/day) | T/C (%) (LNCaP-Xeno-IL-6 cells; daily dose 100 mg/kg/day) | T/C (%) (LNCaP-Xeno-IL-6 cells; daily dose 30 mg/kg/day) | T/C (%) (LNCaP-Xeno-IL-6 cells; daily dose 200 mg/kg/day)
1 | CC(C)(O)c1ccc(Nc2ncnc3c2CCN(c2ccc(C#N)c(Cl)c2)C3)nc1 [Example 9, 2-chloro-4-(4-((5-(2-hydroxypropan-2-yl)pyridin-2-yl)amino)-5,6-dihydropyrido[3,4-d]pyrimidin-7 (8H)-yl)benzonitrile] | 0.25 µM | −0.7% | reduced (When the AR expression reducing activity is 50% or more, it is described as “reduced”) | 0.5 µM | 40% | – | – | –
2 | CC(C)(O)c1ccc(Nc2ncnc3c2CCN(c2ccc(C#N)c(Cl)c2)C3)nn1 [Example 6, 2-chloro-4-(4-((6-(2-hydroxypropan-2-yl)pyridazin-3-yl)amino)-5,6-dihydropyrido[3,4-d]pyrimidin-7 (8H)-yl)benzonitrile] | 0.07 µM | −0.7% | reduced (When the AR expression reducing activity is 50% or more, it is described as “reduced”) | 0.4 µM | – | 29% | – | –
3 | CC(C)(O)c1ccc(Nc2ncnc3c2CCN(c2ccc(C#N)c(C(F)(F)F)c2)C3)nc1 [Example 7, 4-(4-((5-(2-hydroxypropan-2-yl)pyridin-2-yl)amino)-5,6-dihydropyrido[3,4-d]pyrimidin-7(8H)-yl)-2-(trifluoromethyl)benzonitrile] | 0.16 µM | 4.9% | reduced (When the AR expression reducing activity is 50% or more, it is described as “reduced”) | 0.5 µM | – | – | 49% | –
4 | N#Cc1ccc(N2CCc3c(ncnc3Nc3ccc(C(=O)NCC(F)(F)F)cn3)C2)cc1C(F)(F)F [Example 11, 6-((7-(4-cyano-3-(trifluoromethyl)phenyl)-5,6,7,8,-tetrahydropyrido[3,4-d]pyrimidin-4-yl)amino)-N-(2,2,2-trifluoroethyl)nicotinamide] | 0.03 µM | 2.9% | reduced (When the AR expression reducing activity is 50% or more, it is described as “reduced”) | 0.38 µM | – | – | – | 47%
5 | CC(C)(O)c1ccc(Nc2ncnc3c2CCN(c2ccc(C#N)c(C(F)(F)F)c2)C3)nn1 [Example 10, 4-(4-((6-(2-hydroxypropan-2-yl)pyridazin-3-yl)amino)-5,6-dihydropyrido[3,4-d]pyrimidin-7 (8H)-yl)-2-(trifluoromethyl)benzonitrile] | 0.09 µM | 2.8% | reduced (When the AR expression reducing activity is 50% or more, it is described as “reduced”) | 0.8 µM | – | – | – | –
6 | CC(C)(COc1ccc(Nc2ncnc3c2CCN(c2ccc(C#N)c(C(F)(F)F)c2)C3)nc1)n1cnnn1 [Example 17, 4-(4-((5-(2-methyl-2-(1H-tetrazol-1-yl)propoxy)pyridin-2-yl)amino)-5,6-dihydropyrido[3,4-d]pyrimidin-7(8H)-yl)-2-(trifluoromethyl)benzonitrile] | 0.17 µM | 0.6% | reduced (When the AR expression reducing activity is 50% or more, it is described as “reduced”) | 0.7 µM | – | – | – | –
7 | CC(C)Oc1ccc(Nc2ncnc3c2CCN(c2ccc(C#N)c(C(F)(F)F)c2)C3)cc1 [Example 2, 4-(4-((4-isopropoxyphenyl)amino)-5,6-dihydropyrido[3,4-d]pyrimidin-7(8H)-yl)-2-(trifluoromethyl)benzonitrile] | 0.37 µM | 3.8% | reduced (When the AR expression reducing activity is 50% or more, it is described as “reduced”) | 1 µM | – | – | – | –
8 | C[C@@H](NC(=O)c1ccc(Nc2ncnc3c2CCN(c2ccc(C#N)c(C(F)(F)F)c2)C3)nc1)c1nnco1 [Example 38, (R)—N-(1-(1,3,4-oxadiazol-2-yl)ethyl)-6-((7-(4-cyano-3-(trifluoromethyl)phenyl)-5,6,7,8-tetrahydropyrido[3,4-d]pyrimidin-4-yl)amino)nicotinamide] | 0.56 µM | −2.7% | reduced (When the AR expression reducing activity is 50% or more, it is described as “reduced”) | 1.1 µM | – | – | – | –
9 | CC(C)(O)CNC(=O)c1ccc(Nc2ncnc3c2CCN(c2ccc(C#N)c(C(F)(F)F)c2)C3)nn1 [Example 32, 6-((7-(4-cyano-3-(trifluoromethyl)phenyl)-5,6,7,8-tetrahydropyrido[3,4-d]pyrimidin-4-yl)amino)-N-(2-hydroxy-2-methylpropyl)pyridazine-3-carboxamide] | 0.06 µM | −2.2% | reduced (When the AR expression reducing activity is 50% or more, it is described as “reduced”) | 3.1 µM | – | – | – | –
10 | CC(C)Oc1ccc(Nc2ncnc3c2CCN(c2ccc(C#N)c(C(F)(F)F)c2)C3)cn1 [Example 13, 4-(4-((6-isopropoxypyridin-3-yl)amino)-5,6-dihydropyrido[3,4-d]pyrimidin-7(8H)-yl)-2-(trifluoromethyl)benzonitrile] | 0.11 µM | 2.8% | reduced (When the AR expression reducing activity is 50% or more, it is described as “reduced”) | 0.6 µM | – | – | – | –
